Data on 20 compounds can be found in patent US20250353858A1, “CONDENSED HETEROCYCLIC COMPOUNDS AS INHIBITOR OF DIACYLGLYCEROL KINASES” (BEONE MEDICINES I GMBH, priority 2023, published 2025).

The target in experiment [1] is DGKζ (Homo sapiens (Human), UniProt Q13574). Briefly: Biochemical DGK IC50 assay (ADP-Glo, lipid micelle substrate), DGKζ. Conditions: full length DGKζ 0.5 nM, ATP 140 μM, DAG 80 μM. The procedure: (§1) Enzymatic reactions of DGKζ, DGKα and DGKδ were performed using ADP-Glo assay with lipid micelle substrate. […] Full length DGKα (D21-10BG, SignalChem) and full length DGKδ (D23-10G, SignalChem) were purchased. Lipid micelle was prepared by dissolving DAG (Sigma, 317505-10MG) and PS (Sigma, P7769-100MG) with chloroform which was furtherly removed by rotary evaporation. The resulted product was resuspended in buffer containing 25 mM HEPES pH 7.0, 0.5 mM EDTA and 160 mM Octyl β-D glucopyranoside by vigorous mixing and ultrasonic (IID, Scientz).
Sequence of DGKζ (Q13574 other isoform, or with tags, fused parts or gaps): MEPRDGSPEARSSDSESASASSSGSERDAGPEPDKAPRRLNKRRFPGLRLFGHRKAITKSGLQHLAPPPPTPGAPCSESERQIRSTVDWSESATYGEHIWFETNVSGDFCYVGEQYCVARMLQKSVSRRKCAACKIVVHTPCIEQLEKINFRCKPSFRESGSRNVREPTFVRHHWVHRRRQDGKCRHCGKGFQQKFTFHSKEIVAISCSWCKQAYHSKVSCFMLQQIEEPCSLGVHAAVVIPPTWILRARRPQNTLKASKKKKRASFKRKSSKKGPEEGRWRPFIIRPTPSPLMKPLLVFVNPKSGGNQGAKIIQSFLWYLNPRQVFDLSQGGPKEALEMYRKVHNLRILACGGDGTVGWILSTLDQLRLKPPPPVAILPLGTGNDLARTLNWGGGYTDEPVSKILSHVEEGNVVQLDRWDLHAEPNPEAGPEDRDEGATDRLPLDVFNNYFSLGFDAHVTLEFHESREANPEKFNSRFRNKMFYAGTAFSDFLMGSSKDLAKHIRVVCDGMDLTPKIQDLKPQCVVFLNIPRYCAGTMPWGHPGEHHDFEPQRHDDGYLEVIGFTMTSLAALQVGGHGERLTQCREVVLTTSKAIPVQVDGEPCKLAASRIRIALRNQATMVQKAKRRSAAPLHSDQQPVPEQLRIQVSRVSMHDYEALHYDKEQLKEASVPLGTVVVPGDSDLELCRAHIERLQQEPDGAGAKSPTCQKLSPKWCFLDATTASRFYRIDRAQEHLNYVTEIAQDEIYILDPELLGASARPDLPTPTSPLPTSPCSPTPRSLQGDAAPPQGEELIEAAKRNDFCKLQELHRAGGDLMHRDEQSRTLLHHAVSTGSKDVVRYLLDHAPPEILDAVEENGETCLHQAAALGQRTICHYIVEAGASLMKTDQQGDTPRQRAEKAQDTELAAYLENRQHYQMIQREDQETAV
(§2) The inhibition activities testing for the compound disclosed herein were carried out at room temperature in assay buffer containing 50 mM HEPES, 10 mM MgCl2, 0.01% BSA, 0.1 mM Na3VO4, 0.005% Tween-20 and 0.01 mM CaCl2. Compounds in DMSO were dispensed into wells of a black 384 well plate (Corning 4514) using D300e digital dispenser (Tecan). […] 3 μL 2× enzyme solution was added to wells. […] After 1 hour reaction, 5 μL ADP-Glo reagent (Promga V9101) was added and incubated for 40 minutes. 10 μL Kinase Detection reagent was added and incubated for 30 minutes. Luminescence was measured on a microplate reader (PHERAstar FSX, BMG labtech). The IC50s are calculated based on inhibition of enzyme activity in the presence of increasing concentrations of compounds.
Human His-TEV-DGK-zeta-pFastBac1 and human baculovirus samples was generated using the Bac-to-Bac baculovirus expression system (Invitrogen) according to the manufacturer's protocol. The DNA used for expression of DGK-zeta, have SEQ ID Nos: 1. Baculovirus amplification was achieved using infected SF9 cells at 1:2000 virus/cells ratios, and grown for 96 hours at 27° C. post-transfected.
Full length human DGKζ produced as described above, was purified from Sf9 baculovirus-infected insect cell paste. The cells were lysed using sonication method, and the lysates were clarified by centrifugation.
On the technique in general: ADP-Glo turns the ADP formed in a reaction into a luminescent signal.

Experiment [2] concerns the target DGKα (Homo sapiens (Human), UniProt P23743). The experiment is described as follows: Biochemical DGK IC50 assay (ADP-Glo, lipid micelle substrate), DGKα. Note: full length DGKα 7.5 nM. Conditions: full length DGKα […], ATP 140 μM, DAG 80 μM. As to the method: as §1, §2

The structures appear in SMILES notation.

Sequence of DGKα (P23743 whole entry): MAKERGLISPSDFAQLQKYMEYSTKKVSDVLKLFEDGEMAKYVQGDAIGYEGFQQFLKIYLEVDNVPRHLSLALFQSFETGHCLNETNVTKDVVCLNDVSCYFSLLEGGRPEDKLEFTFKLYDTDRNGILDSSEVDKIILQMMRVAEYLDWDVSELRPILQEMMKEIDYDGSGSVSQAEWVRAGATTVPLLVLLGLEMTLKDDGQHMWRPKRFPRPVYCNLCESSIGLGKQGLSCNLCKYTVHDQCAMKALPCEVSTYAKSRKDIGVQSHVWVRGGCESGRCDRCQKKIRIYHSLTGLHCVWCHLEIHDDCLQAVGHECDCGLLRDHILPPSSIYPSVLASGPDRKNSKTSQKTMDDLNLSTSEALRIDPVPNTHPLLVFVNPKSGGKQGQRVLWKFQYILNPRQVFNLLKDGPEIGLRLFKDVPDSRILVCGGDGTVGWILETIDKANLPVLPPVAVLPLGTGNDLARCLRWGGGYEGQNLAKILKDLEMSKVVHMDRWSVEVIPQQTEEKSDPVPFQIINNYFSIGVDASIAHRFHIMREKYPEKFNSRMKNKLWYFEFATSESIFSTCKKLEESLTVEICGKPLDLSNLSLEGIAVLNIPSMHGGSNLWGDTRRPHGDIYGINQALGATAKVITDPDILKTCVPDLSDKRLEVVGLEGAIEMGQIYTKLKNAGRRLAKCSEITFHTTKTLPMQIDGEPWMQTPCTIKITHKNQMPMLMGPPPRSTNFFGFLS

In general, IC50 refers to the concentration needed to halve the response being measured. Read a high IC50 as weaker potency. With `CC[C@H]1CN(C(C)c2ccn3nc(C4CC4)cc3n2)[C@H](CC)CN1c1nc(=O)n(C)c2cc(CC#N)nn12` (single isomer, unassigned) [Compound A54a], the IC50 was 4.9 µM in experiment [1] and 0.485 µM in experiment [2].

On to `CC[C@H]1CN(C(C)c2ccn3nc(C4CC4)cc3n2)[C@H](CC)CN1c1nc(=O)n(C)c2cc(CC#N)nn12` (single isomer, unassigned) [Compound A54b], for which the half-maximal inhibitory concentration (IC50) turned out to be 0.019 µM in experiment [1] and 0.069 µM in experiment [2].

`CC(c1ccc2nccnc2c1)N1C[C@H](C)N(c2cc(=O)n(C)c3cc(C#N)nn23)C[C@H]1C` (stereo partly drawn) [Compound A1, 7-((2S,5R)-2,5-dimethyl-4-(1-(quinoxalin-6-yl)ethyl)piperazin-1-yl)-4-methyl-5-oxo-4,5-dihydropyrazolo[1,5-a]pyrimidine-2-carbonitrile]: the 50% inhibitory concentration (IC50) is 1 µM in experiment [1] and 0.81 µM in experiment [2].

`Cc1cnc2ccc(C(C)N3C[C@H](C)N(c4cc(=O)[nH]c5cc(CC#N)nn45)C[C@H]3C)cc2n1` (stereo partly drawn) [Compound A5, 2-(7-((2S,5R)-2,5-dimethyl-4-(1-(3-methylquinoxalin-6-yl)ethyl)piperazin-1-yl)-5-oxo-4,5-dihydropyrazolo[1,5-a]pyrimidin-2-yl)acetonitrile]: the values for the half-inhibitory concentration (IC50) in experiment [1] and in experiment [2] were 0.1 µM and 116 µM, respectively.

As to `CC(c1ccc2ncc(C(F)F)nc2c1)N1C[C@H](C)N(c2cc(=O)n(C)c3cc(CC#N)nn23)C[C@H]1C` (stereo partly drawn) [Compound A6, 2-(7-((2S,5R)-4-(1-(3-(difluoromethyl)quinoxalin-6-yl)ethyl)-2,5-dimethylpiperazin-1-yl)-4-methyl-5-oxo-4,5-dihydropyrazolo[1,5-a]pyrimidin-2-yl)acetonitrile], the half-inhibitory concentration (IC50) in experiment [1] was 0.058 µM; in experiment [2] it was 4.64 µM.

For `COc1cnc2ccc(C(C)N3C[C@H](C)N(c4cc(=O)n(C)c5cc(CC#N)nn45)C[C@H]3C)cc2n1` (stereo partly drawn) [Compound A7, 2-(7-((2S,5R)-4-(1-(3-methoxyquinoxalin-6-yl)ethyl)-2,5-dimethylpiperazin-1-yl)-4-methyl-5-oxo-4,5-dihydropyrazolo[1,5-a]pyrimidin-2-yl)acetonitrile], the half-inhibitory concentration (IC50) is 0.023 µM in experiment [1] and 16.9 µM in experiment [2].

For `CC(c1ccc2ncc(Cl)nc2c1)N1C[C@H](C)N(c2cc(=O)n(C)c3cc(CC#N)nn23)C[C@H]1C` (stereo partly drawn) [Compound A8, 2-(7-((2S,5R)-4-(1-(3-chloroquinoxalin-6-yl)ethyl)-2,5-dimethylpiperazin-1-yl)-4-methyl-5-oxo-4,5-dihydropyrazolo[1,5-a]pyrimidin-2-yl)acetonitrile], the results for the IC50 in experiment [1] and in experiment [2] were 0.042 µM and 13.3 µM, respectively.

As to `CC(c1ccc2c(c1)OC(C)(C)CO2)N1C[C@H](C)N(c2c(C#N)c(=O)n(C)c3cc(CC#N)nn23)C[C@H]1C` (stereo partly drawn) [Compound A12, 2-(cyanomethyl)-7-((2S,5R)-4-(1-(3,3-dimethyl-2,3-dihydrobenzo[b][1,4]dioxin-6-yl)ethyl)-2,5-dimethylpiperazin-1-yl)-4-methyl-5-oxo-4,5-dihydropyrazolo[1,5-a]pyrimidine-6-carbonitrile], the half-maximal inhibitory concentration (IC50) in experiment [1] came to 0.029 µM; in experiment [2] it was 6.52 µM.

Consider `CC(c1ccc2c(c1)OCCO2)N1C[C@H](C)N(c2cc(=O)n(C)c3cc(CC#N)nn23)C[C@H]1C` (stereo partly drawn) [Compound A13, 2-(7-((2S,5R)-4-(1-(2,3-dihydrobenzo[b][1,4]dioxin-6-yl)ethyl)-2,5-dimethylpiperazin-1-yl)-4-methyl-5-oxo-4,5-dihydropyrazolo[1,5-a]pyrimidin-2-yl)acetonitrile], for which the IC50 was determined as 0.053 µM in experiment [1] and 10.2 µM in experiment [2].

`CC[C@H]1CN(C(C)c2ccc(F)cc2OC)[C@H](CC)CN1c1cc(=O)n(C)c2cc(CC#N)nn12` (stereo partly drawn) [Compound A16, 2-(7-((2S,5R)-2,5-diethyl-4-(1-(4-fluoro-2-methoxyphenyl)ethyl)piperazin-1-yl)-4-methyl-5-oxo-4,5-dihydropyrazolo[1,5-a]pyrimidin-2-yl)acetonitrile]: the IC50 in experiment [1] turned out to be 0.1 µM; in experiment [2], 27.8 µM.

Consider `CC[C@H]1CN(C(C)c2ccc(F)cc2OC(F)F)[C@H](CC)CN1c1cc(=O)n(C)c2cc(CC#N)nn12` (stereo partly drawn) [Compound A17, 2-(7-((2S,5R)-4-(1-(2-(difluoromethoxy)-4-fluorophenyl)ethyl)-2,5-diethylpiperazin-1-yl)-4-methyl-5-oxo-4,5-dihydropyrazolo[1,5-a]pyrimidin-2-yl)acetonitrile], for which the 50% inhibitory concentration (IC50) in experiment [1] worked out at 0.136 µM; in experiment [2], 56.7 µM.

In the case of `CC[C@H]1CN(C(C)c2ccc(F)cc2C(F)F)[C@H](CC)CN1c1cc(=O)n(C)c2cc(CC#N)nn12` (stereo partly drawn) [Compound A18, 2-(7-((2S,5R)-4-(1-(2-(difluoromethyl)-4-fluorophenyl)ethyl)-2,5-diethylpiperazin-1-yl)-4-methyl-5-oxo-4,5-dihydropyrazolo[1,5-a]pyrimidin-2-yl)acetonitrile], the values for the IC50 in experiment [1] and in experiment [2] were 0.028 µM and 15.7 µM, respectively.

On to `CC[C@H]1CN(C(C)c2ccncc2)[C@H](CC)CN1c1cc(=O)n(C)n2cc(CC#N)nc12` (stereo partly drawn) [Compound A19, 2-(8-((2S,5R)-2,5-diethyl-4-(1-(pyridin-4-yl)ethyl)piperazin-1-yl)-5-methy-6-oxo-5,6-dihydroimidazo[1,2-b]pyridazin-2-yl)acetonitrile], for which the 50% inhibitory concentration (IC50) was determined as 7.9 µM in experiment [1] and 0.161 µM in experiment [2].

With `CC[C@H]1CN(C(C)c2ccc(C3CC3)cc2F)[C@H](CC)CN1c1cc(=O)n(C)c2cc(CC#N)nn12` (stereo partly drawn) [Compound A21, 2-(7-((2S,5R)-4-(1-(4-cyclopropyl-2-fluorophenyl)ethyl)-2,5-diethylpiperazin-1-yl)-4-methyl-5-oxo-4,5-dihydropyrazolo[1,5-a]pyrimidin-2-yl)acetonitrile], the half-maximal inhibitory concentration (IC50) turned out to be 0.717 µM in experiment [1] and 2.94 µM in experiment [2].

`CC[C@H]1CN(C(C)c2ccc(C3CC3)nc2)[C@H](CC)CN1c1cc(=O)n(C)c2cc(CC#N)nn12` (stereo partly drawn) [Compound A23, 2-(7-((2S,5R)-4(1-(6-cyclopropylpyridin-3-yl)ethyl)-2,5-diethylpiperazin-1-yl)-4-methyl-5-oxo-4,5-dihydropyrazolo[1,5-a]pyrimidin-2-yl)acetonitrile]: the IC50 worked out at 0.105 µM in experiment [1] and 0.913 µM in experiment [2].

Take `CC[C@H]1CN(C(C)c2ccc(OC(C)C)cn2)[C@H](CC)CN1c1cc(=O)n(C)c2cc(CC#N)nn12` (stereo partly drawn) [Compound A25, 2-(7-((2S,5R)-2,5-diethyl-4-(1-(5-isopropoxypyridin-2-yl)ethyl)piperazin-1-yl)-4-methyl-5-oxo-4,5-dihydropyrazolo[1,5-a]pyrimidin-2-yl)acetonitrile]: the IC50 worked out at 0.175 µM in experiment [1] and 0.148 µM in experiment [2].

On to `CC[C@H]1CN(C(C)c2ccc(C3CC3)nc2F)[C@H](CC)CN1c1cc(=O)n(C)c2cc(CC#N)nn12` (stereo partly drawn) [Compound A26, 2-(7-((2S,5R)-4-(1-(6-cyclopropyl-2-fluoropyridin-3-yl)ethyl)-2,5-diethylpiperazin-1-yl)-4-methyl-5-oxo-4,5-dihydropyrazolo[1,5-a]pyrimidin-2-yl)acetonitrile], for which the figures for the half-inhibitory concentration (IC50) in experiment [1] and in experiment [2] were 0.061 µM and 1.2 µM, respectively.

As for `CC[C@H]1CN(C(C)c2ccc3nc(C)sc3c2)[C@H](CC)CN1c1cc(=O)n(C)c2cc(CC#N)nn12` (stereo partly drawn) [Compound A31, 2-(7-((2S,5R)-2,5-diethyl-4-(1-(2-methylbenzo[d]thiazol-6-yl)ethyl)piperazin-1-yl)-4-methyl-5-oxo-4,5-dihydropyrazolo[1,5-a]pyrimidin-2-yl)acetonitrile], the IC50 in experiment [1] stood at 0.08 µM; in experiment [2] it was 0.617 µM.

Regarding `CC[C@H]1CN(C(C)c2ccc3nc(C)sc3n2)[C@H](CC)CN1c1c(F)c(=O)n(C)c2cc(CC#N)nn12` (stereo partly drawn) [Compound A36, 2-(7-((2S,5R)-2,5-diethyl-4-(1-(2-methylthiazolo[5,4-b]pyridin-5-yl)ethyl)piperazin-1-yl)-6-fluoro-4-methyl-5-oxo-4,5-dihydropyrazolo[1,5-a]pyrimidin-2-yl)acetonitrile], the values for the half-maximal inhibitory concentration (IC50) in experiment [1] and in experiment [2] were 0.629 µM and 1.58 µM, respectively.

Consider `CCC(c1ccn2nc(C)cc2n1)N1C[C@H](C)N(c2cc(=O)n(C)c3cc(CC#N)nn23)C[C@H]1CC` (stereo partly drawn) [Compound A43, 2-(7-((2S,5R)-5-ethyl-2-methyl-4-(1-(2-methylpyrazolo [1,5-a]pyrimidin-5-yl)propyl)piperazin-1-yl)-4-methyl-5-oxo-4,5-dihydropyrazolo [1,5-a]pyrimidin-2-yl)acetonitrile], for which the figures for the IC50 in experiment [1] and in experiment [2] were 0.266 µM and 0.267 µM, respectively.
